Values belong to the molecule of their own block, whether it stands above or below them.
Experiments:
[1] = target: T1, NR2B-R (regulatory domain of NMDA receptor NR2B subunit) (Rattus norvegicus, UniProt Q00960); test: [14C]spermine filter binding to purified NR2B-R; conditions: for [14C]Spermine bound to NR2B-R in presence of addition, %: 40 µM [14C]spermine, % of binding with no addition; for Effect of aminoglycoside on spermine binding to NR2B-R: 20 µM [14C]spermine, aminoglycosides 75 to 300 µM (Fig. 10)
[2] = target: T1, NR2B-R (regulatory domain of NMDA receptor NR2B subunit); test: [3H]ifenprodil filter binding to purified NR2B-R; conditions: for [3H]Ifenprodil bound to NR2B-R in presence of addition, %: 0.4 µM [3H]ifenprodil, % of binding with no addition
[3] = target: T2, NR2A-R (regulatory domain of NMDA receptor NR2A subunit) (Rattus norvegicus, UniProt Q00959); test: [3H]ifenprodil filter binding to purified NR2A-R; conditions: 0.1 to 0.8 µM [3H]ifenprodil
NR2A-R = NR2A-R (Rattus norvegicus, UniProt Q00959); test: Circular dichroism; type: binding
[4] = target: T3, NR1-R (regulatory domain of NMDA receptor NR1 subunit) (Rattus norvegicus, UniProt P35439); test: [3H]ifenprodil filter binding to purified NR1-R
NR1/NR2B receptors [5] = conditions: read-out: IC50 for ifenprodil inhibition at intact, functional NR1/NR2B receptors; pH 7.6; ref Williams 1993; cited from earlier work
[6] = target: T2, NR2A-R (regulatory domain of NMDA receptor NR2A subunit); test: [14C]spermine filter binding to purified NR2A-R; conditions: for Effect of aminoglycoside on spermine binding to NR2A-R: 20 µM [14C]spermine, aminoglycosides 75 to 300 µM (Fig. 10)
[7] = target: T3, NR1-R (regulatory domain of NMDA receptor NR1 subunit); test: [14C]spermine filter binding to purified NR1-R; conditions: for Effect of aminoglycoside on spermine binding to NR1-R: 20 µM [14C]spermine, aminoglycosides 75 to 300 µM (Fig. 10)
NR1-R (E181Q) [8] = target: T4, NR1-R (E181Q) (Rattus norvegicus, UniProt P35439, E181Q); test: biochemical
NR1-R (E181Q) [9] = target: T4, NR1-R (E181Q)
ovalbumin = ovalbumin (Gallus gallus, UniProt P01012); conditions: control, unrelated protein
NR1/NR2B receptors [10] = target: NR1/NR2B receptors (Rattus norvegicus, UniProt P35439+Q00960); test: Voltage clamp recording in Xenopus oocytes expressing NR1/NR2B
NR2B-R = NR2B-R (Rattus norvegicus, UniProt P35439+Q00960); test: Circular dichroism; type: binding
NR1/NR2A receptors = NR1/NR2A receptors (Rattus norvegicus, UniProt P35439+Q00959); test: Voltage clamp recording in Xenopus oocytes expressing NR1/NR2A
NR1-R = NR1-R (Rattus norvegicus, UniProt P35439); test: Circular dichroism; type: binding

T1 sequence (Q00960 27-390): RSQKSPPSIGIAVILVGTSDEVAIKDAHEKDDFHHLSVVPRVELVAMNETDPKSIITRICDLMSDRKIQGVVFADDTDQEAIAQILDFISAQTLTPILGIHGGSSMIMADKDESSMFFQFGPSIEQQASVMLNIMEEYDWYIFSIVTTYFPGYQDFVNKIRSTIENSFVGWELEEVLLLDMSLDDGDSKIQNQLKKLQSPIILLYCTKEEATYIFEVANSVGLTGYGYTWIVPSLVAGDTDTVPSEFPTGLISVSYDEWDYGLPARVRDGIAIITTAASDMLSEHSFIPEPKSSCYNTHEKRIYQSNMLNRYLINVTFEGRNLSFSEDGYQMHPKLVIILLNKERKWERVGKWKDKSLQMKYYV
T2 sequence (Q00959 23-389): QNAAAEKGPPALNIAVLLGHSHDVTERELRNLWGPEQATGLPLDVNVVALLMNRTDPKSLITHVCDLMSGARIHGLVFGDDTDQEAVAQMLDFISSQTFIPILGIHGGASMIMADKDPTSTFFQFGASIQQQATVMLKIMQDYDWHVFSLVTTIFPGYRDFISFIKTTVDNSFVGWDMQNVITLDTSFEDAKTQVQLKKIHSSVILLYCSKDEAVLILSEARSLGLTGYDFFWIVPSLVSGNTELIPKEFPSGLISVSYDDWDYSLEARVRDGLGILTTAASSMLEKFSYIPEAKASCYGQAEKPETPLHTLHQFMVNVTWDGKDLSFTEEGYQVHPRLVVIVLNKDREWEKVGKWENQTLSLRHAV
NR1/NR2B receptors (Rattus norvegicus, UniProt P35439+Q00960), sequence (Q00960 27-1482, other chains not shown): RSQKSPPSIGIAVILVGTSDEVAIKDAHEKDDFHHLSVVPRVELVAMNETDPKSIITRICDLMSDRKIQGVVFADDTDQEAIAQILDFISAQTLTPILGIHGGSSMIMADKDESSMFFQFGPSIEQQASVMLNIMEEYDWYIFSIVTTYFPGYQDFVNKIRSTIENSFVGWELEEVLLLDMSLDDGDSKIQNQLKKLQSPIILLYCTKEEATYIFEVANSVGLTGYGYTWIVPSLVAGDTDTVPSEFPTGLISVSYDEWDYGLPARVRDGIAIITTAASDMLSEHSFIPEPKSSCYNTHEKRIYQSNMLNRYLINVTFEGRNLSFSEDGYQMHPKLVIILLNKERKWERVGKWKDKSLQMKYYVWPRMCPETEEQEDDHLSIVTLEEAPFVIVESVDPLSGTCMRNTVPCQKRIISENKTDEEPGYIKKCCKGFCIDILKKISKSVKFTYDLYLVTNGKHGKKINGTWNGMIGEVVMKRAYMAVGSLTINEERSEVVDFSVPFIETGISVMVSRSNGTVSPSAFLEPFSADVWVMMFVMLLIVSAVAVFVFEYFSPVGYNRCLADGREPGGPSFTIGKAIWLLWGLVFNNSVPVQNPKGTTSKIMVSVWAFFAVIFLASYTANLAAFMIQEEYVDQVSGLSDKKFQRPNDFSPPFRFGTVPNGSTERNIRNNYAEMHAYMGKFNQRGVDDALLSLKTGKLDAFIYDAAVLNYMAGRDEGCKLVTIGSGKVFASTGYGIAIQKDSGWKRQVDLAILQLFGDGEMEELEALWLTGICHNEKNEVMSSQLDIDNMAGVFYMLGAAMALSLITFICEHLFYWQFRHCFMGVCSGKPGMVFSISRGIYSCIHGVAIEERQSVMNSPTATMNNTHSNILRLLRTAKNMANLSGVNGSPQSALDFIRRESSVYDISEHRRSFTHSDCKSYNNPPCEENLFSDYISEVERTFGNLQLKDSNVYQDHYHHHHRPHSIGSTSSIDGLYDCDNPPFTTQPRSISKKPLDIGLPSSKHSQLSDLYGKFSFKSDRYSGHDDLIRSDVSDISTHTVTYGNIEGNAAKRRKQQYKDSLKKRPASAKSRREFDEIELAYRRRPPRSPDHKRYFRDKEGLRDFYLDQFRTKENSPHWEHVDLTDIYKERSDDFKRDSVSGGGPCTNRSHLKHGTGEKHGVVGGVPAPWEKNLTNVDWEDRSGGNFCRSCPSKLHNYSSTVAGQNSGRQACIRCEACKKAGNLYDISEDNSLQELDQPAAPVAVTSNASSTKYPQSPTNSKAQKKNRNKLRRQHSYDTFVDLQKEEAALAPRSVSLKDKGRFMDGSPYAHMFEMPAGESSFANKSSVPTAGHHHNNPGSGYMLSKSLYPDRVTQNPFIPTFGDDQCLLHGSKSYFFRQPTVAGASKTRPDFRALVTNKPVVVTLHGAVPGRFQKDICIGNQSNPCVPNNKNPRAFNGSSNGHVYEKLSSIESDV
NR1/NR2A receptors, sequence (Q00959 23-1464, other chains not shown): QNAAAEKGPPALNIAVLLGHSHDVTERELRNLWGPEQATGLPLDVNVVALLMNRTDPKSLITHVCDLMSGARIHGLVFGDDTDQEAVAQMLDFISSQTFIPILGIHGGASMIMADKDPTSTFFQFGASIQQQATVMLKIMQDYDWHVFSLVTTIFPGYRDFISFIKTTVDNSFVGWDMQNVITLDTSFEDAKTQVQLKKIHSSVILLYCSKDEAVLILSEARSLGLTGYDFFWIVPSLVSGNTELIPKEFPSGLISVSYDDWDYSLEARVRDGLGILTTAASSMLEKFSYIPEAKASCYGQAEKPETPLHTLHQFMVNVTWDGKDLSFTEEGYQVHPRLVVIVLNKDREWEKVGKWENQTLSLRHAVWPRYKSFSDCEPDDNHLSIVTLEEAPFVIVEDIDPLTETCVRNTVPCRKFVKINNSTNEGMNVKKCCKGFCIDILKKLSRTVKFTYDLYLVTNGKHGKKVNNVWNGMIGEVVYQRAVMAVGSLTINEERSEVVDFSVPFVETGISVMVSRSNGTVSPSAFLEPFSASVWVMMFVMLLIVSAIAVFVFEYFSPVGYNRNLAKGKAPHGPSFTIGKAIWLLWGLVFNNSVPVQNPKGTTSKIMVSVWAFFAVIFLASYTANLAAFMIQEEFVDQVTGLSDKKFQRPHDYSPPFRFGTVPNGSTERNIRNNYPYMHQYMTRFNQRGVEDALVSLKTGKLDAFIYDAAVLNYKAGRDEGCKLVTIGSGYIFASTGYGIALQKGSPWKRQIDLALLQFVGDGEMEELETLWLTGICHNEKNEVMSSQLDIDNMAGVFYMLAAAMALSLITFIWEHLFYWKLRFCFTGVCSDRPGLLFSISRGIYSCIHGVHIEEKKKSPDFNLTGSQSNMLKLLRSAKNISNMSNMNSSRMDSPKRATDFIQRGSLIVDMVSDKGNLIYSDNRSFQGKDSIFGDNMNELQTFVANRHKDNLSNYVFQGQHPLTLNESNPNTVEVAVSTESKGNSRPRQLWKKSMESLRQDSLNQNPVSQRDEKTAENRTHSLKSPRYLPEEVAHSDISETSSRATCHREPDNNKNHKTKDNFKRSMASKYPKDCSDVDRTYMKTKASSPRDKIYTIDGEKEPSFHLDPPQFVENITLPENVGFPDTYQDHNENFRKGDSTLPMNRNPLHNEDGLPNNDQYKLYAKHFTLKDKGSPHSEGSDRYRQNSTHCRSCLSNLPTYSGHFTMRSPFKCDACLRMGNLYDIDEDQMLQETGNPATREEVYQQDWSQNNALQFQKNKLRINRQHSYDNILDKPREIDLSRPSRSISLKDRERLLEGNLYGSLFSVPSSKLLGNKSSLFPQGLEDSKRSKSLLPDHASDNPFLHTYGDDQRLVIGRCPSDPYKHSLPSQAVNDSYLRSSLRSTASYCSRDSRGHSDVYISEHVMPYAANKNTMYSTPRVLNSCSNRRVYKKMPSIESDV
NR2A-R, sequence (Q00959 23-389): as the sequence (Q00959 23-389) above
ovalbumin, sequence (P01012 whole entry, species assumed): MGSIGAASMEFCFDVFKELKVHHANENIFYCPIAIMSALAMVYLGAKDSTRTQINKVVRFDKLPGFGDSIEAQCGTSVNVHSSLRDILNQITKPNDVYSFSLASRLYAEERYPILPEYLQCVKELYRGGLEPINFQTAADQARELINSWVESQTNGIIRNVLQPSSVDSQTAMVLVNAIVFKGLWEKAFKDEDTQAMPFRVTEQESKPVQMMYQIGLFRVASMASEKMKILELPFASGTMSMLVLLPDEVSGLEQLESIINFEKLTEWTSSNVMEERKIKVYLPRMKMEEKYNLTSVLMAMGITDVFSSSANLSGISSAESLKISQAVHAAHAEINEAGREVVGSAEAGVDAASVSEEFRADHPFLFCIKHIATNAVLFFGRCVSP
NR2B-R, sequence (Q00960 27-390, one chain of several): as the sequence (Q00960 27-390) above

Molecule: N[C@@H](CCC(=O)O)C(=O)O [Glutamate, glutamate]
- [14C]Spermine bound to NR2B-R in presence of addition, % [1]: 102%
- [3H]Ifenprodil bound to NR2B-R in presence of addition, % [2]: 103%

Molecule: NCC(=O)O [Glycine, glycine]
- [3H]Ifenprodil bound to NR2B-R in presence of addition, % [2]: 102%

- [14C]Spermine bound to NR2B-R in presence of addition, % [1]: 6%
- [3H]Ifenprodil bound to NR2B-R in presence of addition, % [2]: 98%
Molecule: NCCCCNCCCN [Spermidine, spermidine]

Molecule: CC(C(O)c1ccc(O)cc1)N1CCC(Cc2ccccc2)CC1 (stereo not shown) [ifenprodil]
- Specific binding of [3H]ifenprodil to NR2A-R [3]: no specific binding
- Change in the CD spectra of NR2A-R (NR2A-R; 2 µM ifenprodil): no change
- Bmax of ifenprodil binding, NR1-R [4]: 5.6 nmol/mg R domain protein
- Bmax of ifenprodil binding, NR1-R, equivalent [4]: 0.24 mol/mol R domain protein
- Hill coefficient for binding of ifenprodil to NR1-R [4]: ~1.0
- [14C]Spermine bound to NR2B-R in presence of addition, % [1]: 108%
- Bmax of ifenprodil binding, NR2B-R [2]: 5.2 nmol/mg R domain protein
- Bmax of ifenprodil binding, NR2B-R, equivalent [2]: 0.21 mol/mol R domain protein
- Hill coefficient for binding of ifenprodil to NR2B-R [2]: ~1.0
- [3H]Ifenprodil bound to NR2B-R in presence of addition, % [2]: 15%
- IC50 (NR1/NR2B receptors [5]): 340 nM

- Effect of aminoglycoside on spermine binding to NR2A-R [6]: inhibited
- Effect of aminoglycoside on spermine binding to NR2B-R [1]: inhibited
- Effect of aminoglycoside on spermine binding to NR1-R [7]: inhibited
Molecule: NC[C@@H]1O[C@H](O[C@H]2[C@@H](O)[C@H](O[C@@H]3[C@@H](O)[C@H](N)C[C@H](N)[C@H]3O[C@H]3O[C@H](CN)[C@@H](O)[C@H](O)[C@H]3N)O[C@@H]2CO)[C@H](N)[C@@H](O)[C@@H]1O [neomycin B]

- Effect of aminoglycoside on spermine binding to NR2A-R [6]: inhibited
- Effect of aminoglycoside on spermine binding to NR2B-R [1]: inhibited
- Effect of aminoglycoside on spermine binding to NR1-R [7]: inhibited
Molecule: NC[C@@H]1O[C@H](O[C@H]2[C@@H](O)[C@H](O[C@@H]3[C@@H](O)[C@H](N)C[C@H](N)[C@H]3O[C@H]3O[C@H](CO)[C@@H](O)[C@H](O)[C@H]3N)O[C@@H]2CO)[C@H](N)[C@@H](O)[C@@H]1O [paromomycin]

Molecule: NCCCNCCCCNCCCN [spermine]
- Kd (NR1-R (E181Q) [8]): 74 µM
- Bmax of spermine binding, NR2A-R, equivalent [6]: 0.29 mol/mol R domain
- Hill coefficient for spermine binding to NR2A-R [6]: close to unity
- Kd [6]: 140 µM
- Bmax of spermine binding, NR2A-R ([6]; Scatchard plot): 6.9 nmol/mg R domain protein
- Affinity for spermine lower at NR2A R domain compared to NR2B R domain ([6]; ratio of Kd): 4 fold
- Binding of spermine to E181Q mutant compared to wild-type NR1-R (NR1-R (E181Q) [9]): reduced
- Binding of spermine to ovalbumin (ovalbumin): little binding
- EC50 (NR1/NR2B receptors [10]): 78 µM
- Hill coefficient for spermine at NR1/NR2B (NR1/NR2B receptors [10]; oocytes, −20 mV): 1.05
- Kd (NR2A-R): 133 µM
- Kd (NR2B-R): 35 µM
- EC50 (NR1/NR2A receptors): 278 µM
- Hill coefficient for spermine at NR1/NR2A (NR1/NR2A receptors; oocytes, −20 mV): 1.17
- Kd (NR1-R): 20 µM
- Bmax of spermine binding, NR2B-R, equivalent [1]: 0.32 mol/mol R domain
- Hill coefficient for spermine binding to NR2B-R [1]: close to unity
- [14C]Spermine bound to NR2B-R in presence of addition, % [1]: 7%
- Kd ([1]; Kd of spermine at NR2B-R calculated from k1 and k−1, from rate constants): 25.9 µM
- Bmax of spermine binding, NR2B-R ([1]; Scatchard plot): 7.3 nmol/mg R domain protein
- Dissociation rate constant k−1 of [14C]spermine at NR2B-R ([1]; after addition of nonlabeled 3 mM spermine): 0.22 min⁻¹
- Association rate constant k1 of [14C]spermine at NR2B-R ([1]; average at 12.5, 25 and 50 µM [14C]spermine): 8,500 M^−1·min^−1
- [3H]Ifenprodil bound to NR2B-R in presence of addition, % [2]: 99%
- Bmax of spermine binding, NR1-R, equivalent [7]: 0.24 mol/mol R domain
- Hill coefficient for spermine binding to NR1-R [7]: close to unity
- Kd [7]: 19 µM
- Bmax of spermine binding, NR1-R ([7]; Scatchard plot): 6.3 nmol/mg R domain protein

- Effect of aminoglycoside on spermine binding to NR2A-R [6]: inhibited
- Effect of aminoglycoside on spermine binding to NR2B-R [1]: inhibited
- Effect of aminoglycoside on spermine binding to NR1-R [7]: inhibited
Molecule: [H]/N=C(/N)N[C@H]1[C@H](O)[C@@H](O)[C@H](O[C@@H]2O[C@@H](C)[C@](O)(C=O)[C@H]2O[C@@H]2O[C@@H](CO)[C@H](O)[C@@H](O)[C@@H]2NC)[C@@H](N/C(N)=N\[H])[C@@H]1O [streptomycin]

Molecule: kanamycin A
- Effect of aminoglycoside on spermine binding to NR2A-R [6]: inhibited
- Effect of aminoglycoside on spermine binding to NR2B-R [1]: inhibited
- Effect of aminoglycoside on spermine binding to NR1-R [7]: inhibited

Reference: publication PMC2690642 (Journal of neurochemistry, 2008)
